The source of these data is patent US12398121B2 (Nuvation Bio Inc., priority 2018, dated 2025).

In one experiment the target is Human recombinant PARP1 (Homo sapiens, UniProt P09874). In words: RBC HotSpot PARP1 radioisotope-based filter binding assay. In kind it is biochemical. On the procedure:
(§1) The following methods are for evaluating the in vitro biology properties of the test articles. • a. RBC HotSpot Poly(ADP-ribose) Polymerases 1 (PARP1) and Poly(ADP-ribose) Polymerases 2 (PARP2) Assays: The assay principle is radioisotope-based filter binding assay where incorporation of radioisotope-labeled NAD^+ into the substrate captured on filter is detected after washout free NAD^+. Data were analyzed using Excel and GraphPad Prism software for IC50 curve fits. Each assay was conducted with PJ34 as a positive control. • i. PARP1 assay: Human recombinant PARP1 at a final concentration of 2.5 nM was combined with histone H4 (20 μM) and test articles at various concentrations in reaction buffer (50 mM Tris-HCL, pH 8.0, 50 mM NaCl, 10 mM MgCl2, 1 mM DTT, 1% DMSO, and 20 μg/mL activated DNA). The solution was inoculated for 20 min at room temperature and the reaction initiated by adding [adenylate-^32P]-Nicotinamide Adenine Dinucleotide, ^32P-NAD^+ at a final concentration of 10 μM. After incubation for 2 hour at room temperature, the reaction mixture was filtered and washed with 0.75% phosphoric acid for radioactivity detection. • ii. PARP2 assay: Human recombinant PARP2 at a final concentration of 2.5 nM was combined with histone H3 (20 μM) and test articles at various concentrations in reaction buffer (50 mM Tris-HCL, pH 8.0, 50 mM NaCl, 10 mM MgCl2, 1 mM DTT, 1% DMSO, and 20 μg/mL activated DNA). The solution was inoculated for 20 min at room temperature and the reaction was initiated by adding [adenylate-^32P]-Nicotinamide Adenine Dinucleotide, ^32P-NAD^+ at a final concentration of 10 μM. After incubation for 2 hour at room temperature, the reaction mixture was filtered and washed with 0.75% phosphoric acid for radioactivity detection. • b. AR binding assay: AR in LNCaP cytosol was used for determining the binding affinity of test articles and the reference compound—progesterone (Sigma, Cat: E2785, St. Louis, MO). IC50s were determined using 8 concentrations/compound. Cytosol was plated at 200 μg/well (100 μL) into a 96-well conical polypropylene plate (Agilent, Cat: 5042-1385, Santa Clara, CA) and mixed with 3 μL of test compound. After adding 100 μL of ^3H-methyltrienolone (PerkinElmer, Cat: NET590250UC, San Jose, CA), the plate was sealed and shaken at 300 rpm at 4° C. for 24 hours. Post incubation, 100 μL of radioligand adsorption buffer containing 10 mM Tris-HCl, pH 7.4; 1.5 mM EDTA; 1 mM DTT; 0.25% charcoal; 0.0025% dextran was added to individual well. Plate was shaken for 15 min at 4′C followed by centrifugation at 3000 rpm for 30 min at 4° C. 150 μL of supernatant was transferred into scint-tube (PerkinElmer, Cat: 6000192) and mixed with 2 mL of Ultima Gold Cocktail (PerkinElmer, Cat: 6013329). Radioactivity was counted using a TriCarb 2910 TR scintillation counter (PerkinElmer). Inhibition of the radioactivity by test articles were calculated using the equation below: % Inhibition=(1−(Assay well−Average_LC)/(Average_HC−Average_LC))×100%.

The target of the next experiment is T1, AR in LNCaP cytosol (Homo sapiens, UniProt P10275, T878A).
T1 construct: endogenous in cells; host or cells: LNCaP cytosol
T1 sequence (P10275 1-920 T878A): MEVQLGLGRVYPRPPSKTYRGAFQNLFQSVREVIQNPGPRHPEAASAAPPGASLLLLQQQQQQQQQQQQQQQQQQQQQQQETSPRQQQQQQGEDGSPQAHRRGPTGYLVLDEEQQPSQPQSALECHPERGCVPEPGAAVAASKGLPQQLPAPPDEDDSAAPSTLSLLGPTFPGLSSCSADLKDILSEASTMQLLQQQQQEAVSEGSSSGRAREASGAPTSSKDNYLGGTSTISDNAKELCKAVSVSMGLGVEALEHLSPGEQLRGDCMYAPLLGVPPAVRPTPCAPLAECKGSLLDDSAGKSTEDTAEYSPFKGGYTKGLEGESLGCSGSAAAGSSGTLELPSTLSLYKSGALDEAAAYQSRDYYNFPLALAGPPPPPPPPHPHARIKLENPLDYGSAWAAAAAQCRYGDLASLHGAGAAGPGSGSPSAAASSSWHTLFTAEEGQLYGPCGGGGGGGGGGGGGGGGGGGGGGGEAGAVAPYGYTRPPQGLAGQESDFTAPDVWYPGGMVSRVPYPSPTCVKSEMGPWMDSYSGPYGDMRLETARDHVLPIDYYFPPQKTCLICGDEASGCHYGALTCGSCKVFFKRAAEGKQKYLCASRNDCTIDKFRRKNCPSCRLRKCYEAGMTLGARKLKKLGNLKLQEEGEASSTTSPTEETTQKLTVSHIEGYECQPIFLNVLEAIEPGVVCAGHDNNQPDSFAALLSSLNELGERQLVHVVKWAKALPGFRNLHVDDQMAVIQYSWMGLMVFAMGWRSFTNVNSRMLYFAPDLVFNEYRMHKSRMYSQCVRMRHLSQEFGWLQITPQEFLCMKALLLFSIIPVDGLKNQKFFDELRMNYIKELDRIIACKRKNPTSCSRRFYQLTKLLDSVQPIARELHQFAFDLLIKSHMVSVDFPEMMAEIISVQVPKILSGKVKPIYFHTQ
In words: AR binding assay (3H-methyltrienolone displacement). As for the experimental part: as §1
IC50 values were calculated and graphed using the model “log(inhibitor) vs. response—Variable slope” included in GraphPad Prism 5 (San Diego, CA). The Ki values were further calculated using the equation below where [L] was the radioligand concentration (1 nM) using in this study. Kd value was 0.332 nM. Ki=IC50/(1+[L]/Kd) c. AR transactivation: Human AR cloned into a CMV vector backbone was used for the transactivation study. HEK-293 cells were plated at 80,000 cells per well of a 24 well plate in DME+5% csFBS. Twenty four hours later, the cells were transfected using Lipofectamine (Invitrogen, Carlsbad, CA) with 0.25 μg GRE-LUC, 0.01 μg CMV-LUC (renilla luciferase) and 25 ng of the AR in OPTIMEM medium. The cells were treated 24 hrs after transfection with various ligands (10^−12 to 10^−5 M final concentrations) and luciferase assay were performed 48 hours after transfection. […]

Setting [1] is: 2.5 nM enzyme, histone H4, 10 μM 32P-NAD+, read-out: PARP1 IC50.
[2] abbreviates: Ki=IC50/(1+[L]/Kd), [L] 1 nM, Kd 0.332 nM, read-out: AR Ki.

Like-named read-outs stand apart in the source and are kept apart here. Bounds are passed on as bounds.

Human recombinant PARP1, sequence (P09874 whole entry): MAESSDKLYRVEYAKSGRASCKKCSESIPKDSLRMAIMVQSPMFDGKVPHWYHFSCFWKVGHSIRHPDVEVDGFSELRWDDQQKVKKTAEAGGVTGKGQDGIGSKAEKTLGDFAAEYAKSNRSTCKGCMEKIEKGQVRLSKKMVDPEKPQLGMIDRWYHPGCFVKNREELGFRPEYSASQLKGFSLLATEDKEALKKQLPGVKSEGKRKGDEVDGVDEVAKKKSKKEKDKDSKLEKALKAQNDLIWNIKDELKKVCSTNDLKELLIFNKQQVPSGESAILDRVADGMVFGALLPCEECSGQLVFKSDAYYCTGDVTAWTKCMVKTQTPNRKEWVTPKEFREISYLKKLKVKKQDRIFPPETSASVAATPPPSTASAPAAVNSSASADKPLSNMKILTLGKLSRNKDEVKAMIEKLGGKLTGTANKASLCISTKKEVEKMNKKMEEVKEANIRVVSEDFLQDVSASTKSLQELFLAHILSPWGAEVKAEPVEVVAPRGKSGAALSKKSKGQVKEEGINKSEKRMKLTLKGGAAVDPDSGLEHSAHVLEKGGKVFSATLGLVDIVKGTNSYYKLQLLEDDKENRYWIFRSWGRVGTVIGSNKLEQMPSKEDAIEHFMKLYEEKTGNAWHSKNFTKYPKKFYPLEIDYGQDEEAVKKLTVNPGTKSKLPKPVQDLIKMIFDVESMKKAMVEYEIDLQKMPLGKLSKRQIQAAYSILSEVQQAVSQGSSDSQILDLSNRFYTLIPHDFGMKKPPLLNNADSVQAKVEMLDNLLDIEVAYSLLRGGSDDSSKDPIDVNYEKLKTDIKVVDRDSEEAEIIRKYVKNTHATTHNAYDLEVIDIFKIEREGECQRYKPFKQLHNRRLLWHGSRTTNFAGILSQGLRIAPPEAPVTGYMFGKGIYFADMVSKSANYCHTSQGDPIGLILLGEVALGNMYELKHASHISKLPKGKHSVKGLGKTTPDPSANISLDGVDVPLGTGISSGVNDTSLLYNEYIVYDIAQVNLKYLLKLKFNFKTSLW

Usually IC50 stands for the point on the concentration scale where inhibition reaches its midpoint. What is called Ki is a measure of affinity in units of concentration, obtained from inhibition or displacement. Consider `C[C@](O)(CS(=O)(=O)c1ccc(NCCN2CCN(C(=O)c3cc(Cc4n[nH]c(=O)c5ccccc45)ccc3F)CC2)cc1)C(=O)Nc1ccc(C#N)c(C(F)(F)F)c1` [Compound 1.99, (R)-N-(4-cyano-3-(trifluoromethyl)phenyl)-3-(4-(2-(4-(2-fluoro-5-((4-oxo-3,4-dihydrophthalazin-1-yl)methyl)benzoyl)piperazin-1-yl)ethylamino)phenylsulfonyl)-2-hydroxy-2-methylpropanamide], for which, at Human recombinant PARP1, the IC50 was found to be 0.8 nM. Besides, affinity at AR in LNCaP cytosol was put at a Ki of 197 nM.
`C[C@]12CCC(=O)C[C@@H]1CC[C@@H]1[C@@H]2CC[C@]2(C)[C@@H](OCCOCC(=O)N3CCN(C(=O)c4cc(Cc5n[nH]c(=O)c6ccccc56)ccc4F)CC3)CC[C@@H]12` [Compound 1.104, 4-(3-(4-(2-(2-((5S,8R,9S,10S,13S,14S,17S)-10,13-dimethyl-3-oxohexadeca hydro-1H-cyclopenta[a]phenanthren-17-yloxy)ethoxy)acetyl)piperazine-1-carbonyl)-4-fluorobenzyl)phthalazin-1(2H)-one]: the IC50 on Human recombinant PARP1 (setting [1]) is 1.2 nM. Further, the inhibition constant Ki at AR in LNCaP cytosol (setting [2]) stood at 167 nM.
Consider `C[C@]12CCC(=O)C[C@@H]1CC[C@@H]1[C@@H]2CC[C@@]2(C)[C@H]1CC[C@@]2(O)c1cn(CC(=O)N2CCN(C(=O)c3cc(Cc4n[nH]c(=O)c5ccccc45)ccc3F)CC2)nn1` [Compound 1.107, 4-(4-fluoro-3-(4-(2-(4-((5S,8R,9S,10S,13S,14S,17S)-17-hydroxy-10,13-dimethyl-3-oxohexadecahydro-1H-cyclopenta[a]phenanthren-17-yl)-1H-1,2,3-triazol-1-yl)acetyl)piperazine-1-carbonyl)benzyl)phthalazin-1(2H)-one], for which, on Human recombinant PARP1 (setting [1]), the half-maximal inhibitory concentration (IC50) is 0.3 nM. Also, the inhibitory constant (Ki) at AR in LNCaP cytosol (setting [2]) is greater than 7470 nM.
In the case of `C[C@]12CCC(=O)C[C@@H]1CC[C@@H]1[C@@H]2CC[C@]2(C)[C@@H](OCC(=O)N3CCN(C(=O)c4cc(Cc5n[nH]c(=O)c6ccccc56)ccc4F)CC3)CC[C@@H]12` [Compound 1.110, 4-(3-(4-(2-((5S,8R,9S,10S,13S,14S,17S)-10,13-dimethyl-3-oxohexadecahydro-1H-cyclopenta[a]phenanthren-17-yloxy)acetyl)piperazine-1-carbonyl)-4-fluorobenzyl)phthalazin-1(2H)-one], the IC50 on Human recombinant PARP1 (setting [1]) turned out to be 0.7 nM. This compound also displayed a Ki at AR in LNCaP cytosol of 60 nM.
In the same order, the values of `C[C@]12CCC(O)C[C@@H]1CC[C@@H]1[C@@H]2CC[C@]2(C)[C@@H](OCCCCCC(=O)N3CCN(C(=O)c4cc(Cc5n[nH]c(=O)c6ccccc56)ccc4F)CC3)CC[C@@H]12` (stereo partly drawn) [Compound 1.111, 4-(4-fluoro-3-(4-(6-((5S,8R,9S,10S,13S,14S,17S)-3-hydroxy-10,13-dimethylhexadecahydro-1H-cyclopenta[a]phenanthren-17-yloxy)hexanoyl)piperazine-1-carbonyl)benzyl)phthalazin-1(2H)-one] are 1.6 nM and 36 nM.
As for `C[C@]12CCC(F)(F)C[C@@H]1CC[C@@H]1[C@@H]2CC[C@]2(C)[C@@H](OCCCCCC(=O)N3CCN(C(=O)c4cc(Cc5n[nH]c(=O)c6ccccc56)ccc4F)CC3)CC[C@@H]12` [Compound 1.114, 4-(3-(4-(6-((5S,8R,9S,10S,13S,14S,17S)-3,3-difluoro-10,13-dimethylhexadecahydro-1H-cyclopenta[a]phenanthren-17-yloxy)hexanoyl)piperazine-1-carbonyl)-4-fluorobenzyl)phthalazin-1(2H)-one], the half-maximal inhibitory concentration (IC50) at Human recombinant PARP1 (setting [1]) was found to be 27.9 nM. The compound also showed a Ki on AR in LNCaP cytosol of 19 nM.
Turning to `C[C@]12CCC(=O)C[C@@H]1CC[C@@H]1[C@@H]2CC[C@@]2(C)[C@H]1CC[C@@]2(O)C#CC(=O)N1CCN(C(=O)c2cc(Cc3n[nH]c(=O)c4ccccc34)ccc2F)CC1` [Compound 1.116, 4-(4-fluoro-3-(4-(3-((5S,8R,9S,10S,13S,14S,17S)-17-hydroxy-10,13-dimethyl-3-oxohexadecahydro-1H-cyclopenta[a]phenanthren-17-yl)propioloyl)piperazine-1-carbonyl)benzyl)phthalazin-1(2H)-one], on Human recombinant PARP1 (setting [1]), the IC50 came out at 0.5 nM. Moreover, the Ki at AR in LNCaP cytosol (setting [2]) was found to be 4970 nM.
In the same order, the values of `C[C@]12CCC(=O)C[C@@H]1CC[C@@H]1[C@@H]2CC[C@@]2(C)[C@H]1CC[C@@]2(O)C#CCN1CCN(C(=O)c2cc(Cc3n[nH]c(=O)c4ccccc34)ccc2F)CC1` [Compound 1.118, 4-(4-fluoro-3-(4-(3-((5S,8R,9S,10S,13S,14S,17S)-17-hydroxy-10,13-dimethyl-3-oxohexadecahydro-1H-cyclopenta[a]phenanthren-17-yl)prop-2-ynyl)piperazine-1-carbonyl)benzyl)phthalazin-1(2H)-one] are 13.6 nM and greater than 7470 nM.
For `C[C@]12CCC(=O)C[C@@H]1CC[C@@H]1[C@@H]2CC[C@@]2(C)[C@H]1CC[C@@]2(O)CCCN1CCN(C(=O)c2cc(Cc3n[nH]c(=O)c4ccccc34)ccc2F)CC1` [Compound 1.119, 4-(4-fluoro-3-(4-(3-((5S,8R,9S,10S,13S,14S,17R)-17-hydroxy-10,13-dimethyl-3-oxohexadecahydro-1H-cyclopenta[a]phenanthren-17-yl)propyl)piperazine-1-carbonyl)benzyl)phthalazin-1(2H)-one], on Human recombinant PARP1 (setting [1]), the IC50 was found to be 1.6 nM. In addition, the Ki on AR in LNCaP cytosol was determined as 20 nM.
